Earlier results as cited in patent US7897154B2, “Dermal drops” (ABR, LLC, priority 2006, dated 2011).

Tests used:
[1] = test system: pre-adipocyte
[2] = animal models of non-insulin-dependent diabetes
[3] = test system: H. ras transformed rat2 cells

For dehydrotrametenolic acid [DHTA], the pre-adipocyte differentiation [1] is given as “induce pre-adipocyte differentiation”, the sensitization to insulin [2] is given as “sensitize animal models of non-insulin-dependent diabetes to insulin” and the apoptosis [3] is given as “induce apoptosis”. The growth [3] was “inhibit the growth of H. ras”.
